# Measured values from patent US11648233B2, “Heripenes with pain-relieving effect, active substances of Hericium erinaceus mycelium and the preparation method thereof, and pharmaceutical composition containing the heripenes or active substances” (GRAPE KING BIO LTD., priority 2015, dated 2023).
# Tested on: P2R (P2-purinoceptor) in human osteosarcoma HOS cells
# Test: Inhibition of ATP-induced P2R calcium signals (Fura-2 fluorescence) in HOS cells
# Format: cell-based
# Conditions: erinacine S 5, 10 and 15 μg/ml (FIG. 7B)
# Experimental: Cells were filled with a fluorescent dye-based calcium indicator, “Fura-2, AM cell permeant” (ThermoFisher Scientific, Waltham, Mass., U.S.A.), and the variation of the fluorescence level at an emission wavelength of 505 nm was determined at two excitation wavelengths of 340 nm and 380 nm using a fluorescence spectrometer (SPEX® 1681, Spec Industries, Inc., New Jersey, U.S.A.). During the experiment, ATP was added to cells to stimulate the P2R expression, and the variation of the fluorescence level was observed. Finally, 1 wt. % digitonin was added to enable the cells to become transparent, and the maximum fluorescence ratio (Rmax) was obtained at a concentration of 2 mM Ca^2+. Ethyleneglycol bis(2-aminoethylether)tetraacetic acid (EGTA) then was added to chelate with the calcium ions to obtain a minimum fluorescence ratio (Rmin). The dissociation coefficient (Kd) of fura-2 to Ca^2+ is 225 nM. The intracellular calcium-ion concentration was calculated using formulas (Grynkiewicz et al., J. Biol. Chem. 1985. 260(6):3440-3450). […]
# Comparing the P2R-correlated calcium signals in three cell lines stimulated with ATP, the variation of the calcium-ion concentration in human osteosarcoma HOS cells was the most significant, and thus the influence of the agent on P2R can clearly be determined. […]
compound,measurement,value
CC(C)C1=C2C3CCC4=C(O)C(=O)C5(O)COC6OC(C4C65O)C3(C)CCC2(C)CC1 (stereo not shown) [erinacine S],inhibition effect on the variation of the intracellular calcium-ion concentration induced by ATP,more significant in a dosage-dependent manner
